According to PMC11862990, “Utility of 6-aza-2-thiothymine in the synthesis of novel [1,2,4]triazolo[4,3-b][1,2,4]triazin-7-one derivatives: synthesis, structure elucidation, molecular docking and in vitro anti-lung cancer activity” (RSC Advances, 2025):
Where “and” joins values, the source holds several entries; their conditions need not be identical. Identical values can stand only once. Like-named read-outs stand apart in the source and are kept apart here. Marks after values point to notes of the source that are not given here.

How the values were obtained:
[1] = test system: lung cancer cell lines (A549); test: DNA damage evaluation using the comet assay; assay type: cell-based, human; conditions: for DNA damaged cells% (mean ± SEM): A549, comet assay, negative control 11.59 ± 0.65; for Class 0 cells (no tail) / Class 1 cells (tail length < diameter of the nucleus) / Class 2 cells (tail length between 1× and 2× the diameter of the nucleus) / Class 3 cells (tail length > 2× the diameter of the nucleus) / No. of cells: Comets: A549, of 440 cells analyzed
Procedure: The determination of DNA damage via the comet assay was conducted using lung cancer cell lines, following the methodology established by Olive et al. (1990).[32] Following trypsin treatment to generate a single-cell suspension, approximately 1.5 × 10^4 cells were embedded in 0.75% low-gelling-temperature agarose and swiftly pipetted onto a pre-coated microscope slide.
The samples underwent lysis for 4 hours at 50 °C in a solution containing 0.5% SDS and 30 mM EDTA at pH 8.0. Following an overnight rinse at room temperature in a Tris/borate/EDTA buffer, pH 8.0, samples underwent electrophoresis for 25 minutes at 0.6 V cm^−1 and were subsequently stained with propidium iodide. The slides were examined with a fluorescence microscope equipped with a CCD camera, and 150 individual comet images were analyzed from each sample for a tail moment, DNA content, and percentage of DNA in the tail.
The non-overlapping cells were randomly selected and assigned a score on a scale of 0–3 based on the comet tail length migration and the relative proportion of DNA in the nucleus. Class 0 indicates no detectable DNA damage and no tail; class 1 indicates a tail length less than the diameter of the nucleus; class 2 indicates a tail length between 1× and 2× the nuclear diameter; and class 3 indicates a tail longer than 2× the diameter of the nucleus (Collins et al., 1997).[33]

[2] = test system: BCL-2 gene expression in lung cancer cell lines; test: qRT-PCR gene expression, BCL-2; assay type: cell-based, human; conditions: treated lung cancer cell lines vs negative control; descending order 7g, Dox, 7a
Procedure: The RNeasy Mini Kit (Qiagen, Hilden, Germany), augmented with a DNaseI (Qiagen) digestion step, was employed to extract total RNA from lung cancer cell lines following the manufacturer's procedure. The isolated total RNA was treated with one unit of RQ1 RNAse-free DNAse (Invitrogen, Germany) to eliminate DNA remnants, re-suspended in DEPC-treated water, and quantified photometrically at 260 nm. The purity of total RNA was evaluated using the 260/280 nm ratio, which ranged from 1.8 to 2.1.[27]
Furthermore, integrity was confirmed using ethidium bromide-stained examination of 28S and 18S bands via formaldehyde-containing agarose gel electrophoresis. Aliquots were utilized immediately for reverse transcription (RT); otherwise, they were preserved at −80 °C.
The poly(A) + RNA extracted from the lung cancer cell lines was reverse transcribed into the cDNA in a total amount of 20 μl utilizing the Revert Aid TM First Strand cDNA Synthesis Kit (Fermentas, Germany). A total of 5 μg of RNA was utilized with a master mix. The master mix comprised 50 mM MgCl2, 10× RT buffer (50 mM KCl; 10 mM Tris–HCl; pH 8.3), 10 mM of each dNTP, 50 μM oligo-dT primer, 20 IU ribonuclease inhibitor (50 kDa recombinant enzyme to suppress RNase activity), and 50 IU MuLV reverse transcriptase. Each sample mixture was centrifuged for 30 seconds at 1000 g and thereafter transferred to the thermocycler. The RT reaction was conducted at 25 °C for 10 minutes, subsequently at 42 °C for 1 hour, and concluded with a denaturation phase at 99 °C for 5 minutes. Subsequently, the reaction tubes containing RT-prepared samples were rapidly chilled in an ice chamber prior to cDNA amplification via the quantitative real-time polymerase chain reaction (qRT-PCR).
The cDNA copy number of lung cancer cell lines was determined using the StepOne™ Real-Time PCR System from Applied Biosystems (Thermo Fisher Scientific, Waltham, MA, USA). […]
The reaction protocol was divided into three stages. […] The relative quantification of the target gene to the reference gene was assessed using the 2^−ΔΔCT method.[29–31]

[3] = test system: BJ1 (normal skin fibroblast)
Procedure: Using specific human cancer cell lines, the anti-proliferative effectiveness of compounds 7a–j was evaluated in an in vitro assay. The anti-cancer activity of these compounds (7a–j) on various cancer cell lines, including PC3 (Prostate cell line), A549 (Lung carcinoma), PACA2 (Pancreatic cancer cell line) and BJ1 (normal skin fibroblast), was investigated in this study using the 3-(4,5-dimethylthiazol-2-yl)-2,5-diphenyltetrazolium bromide (MTT) test.
In the initial screening trial, a single dosage concentration of 100 μg ml^−1 was applied for 48 hours. The cytotoxicity of the treated cells was determined by calculating the cell death percentage (% mortality) as a percentage of untreated cells (Table 2).
Cell viability was tested using the MTT assay, 3-(4,5-dimethylthiazol-2-yl)-2,5-diphenyl-tetrazolium bromide (Bio Basic Canada Inc. Toronto, Canada).[26] Under class II biosafety regulations, the procedures were carried out in a sterile laminar air flow cabinet (Baker, SG403INT; Sanford, ME, USA). Cell lines were obtained from the American type culture collection (ATCC) as a gift from Dr Stig Linder, Karonisca Institute, Sweden. All incubations were performed at 37 °C in a 5% CO2 incubator with a 95% humidified environment (Sheldon, TC2323; Cornelius, OR, USA). 96-well micro titer polypropylene plates were seeded with cells at a density of 10^4 cells per well in complete DMEM media, and the cells were allowed to adhere for 24 hours. After the media was aspirated, the tested compounds were added to the cells in a single dose of 100 μg ml^−1 in DMSO. Each well received 40 μl of MTT salt ([…]) following a 48 hour incubation period. 200 μl of 10% sodium dodecyl sulfate (SDS) was added to each well after the reaction ended, and any formazan crystals that could have been produced were dissolved by two hours of incubator heating to 37 °C. The amount of formazan product was measured at 595 nm using a microplate reader (Bio-Rad Laboratories, model 3350, California, USA) with a reference wavelength of 690 nm, serving as a backdrop. Rather than the drugs under investigation, the medium was applied to the untreated cells (negative control). The examined compounds were dissolved in dimethylsulfoxide (DMSO), and the final concentration in the cells was less than 0.2%. For each compound and the control, the solvent concentration was the same.

**Q.** What does the source list for `Cc1nn2c(C)nn(-c3ccc([N+](=O)[O-])cc3)c2nc1=O` [Compound 7a, 3,6-Dimethyl-1-(4-nitrophenyl)-[1,2,4]triazolo[4,3-b][1,2,4]triazin-7(1H)-one]?
**A.** DNA damaged cells% (mean ± SEM) [1]: 28.18 ± 1.25^a %; Class 0 cells (no tail) [1]: 316; Class 1 cells (tail length < diameter of the nucleus) [1]: 37; Class 2 cells (tail length between 1× and 2× the diameter of the nucleus) [1]: 45; Class 3 cells (tail length > 2× the diameter of the nucleus) [1]: 42; No. of cells: Comets [1]: 124; BCL-2 (anti-apoptotic gene) expression level [2]: diminished; (%) Mortality BJ1 (cytotoxicity percentage on normal cells) ([3]; 100 μg ml^−1, 48 hours, MTT): 3.5% and 3.5 ± 1.16%

**Q.** For `COc1ccc(-c2nn(-c3ccccc3)c3nc(=O)c(C)nn23)cc1` [Compound 7g, 3-(4-Methoxyphenyl)-6-methyl-1-phenyl-[1,2,4]triazolo[4,3-b][1,2,4]triazin-7(1H)-one], which “DNA damaged cells% (mean ± SEM)” value [1] is on record?
**A.** 21.14 ± 0.85^b %

**Q.** And the “Class 0 cells (no tail)” value [1]?
**A.** 347

**Q.** And the “Class 1 cells (tail length < diameter of the nucleus)” value [1]?
**A.** 32

**Q.** What about the “Class 2 cells (tail length between 1× and 2× the diameter of the nucleus)” value [1] of the same molecule?
**A.** 38

**Q.** And the “Class 3 cells (tail length > 2× the diameter of the nucleus)” value [1]?
**A.** 23

**Q.** And the “No. of cells: Comets” value [1]?
**A.** 93

**Q.** And the “BCL-2 (anti-apoptotic gene) expression level” value [2]?
**A.** diminished

**Q.** What about the “(%) Mortality BJ1 (cytotoxicity percentage on normal cells)” value ([3]; 100 μg ml^−1, 48 hours, MTT) of the same molecule?
**A.** 2.8% and 2.8 ± 0.71%

**Q.** For `COc1cccc2c1C(=O)c1c(O)c3c(c(O)c1C2=O)C[C@@](O)(C(=O)CO)C[C@@H]3O[C@H]1C[C@H](N)[C@H](O)[C@H](C)O1` [Dox, Doxorubicin, reference compound], which “DNA damaged cells% (mean ± SEM)” value [1] is on record?
**A.** 23.86 ± 1.11^b %

**Q.** And the “Class 0 cells (no tail)” value [1]?
**A.** 335

**Q.** And the “Class 1 cells (tail length < diameter of the nucleus)” value [1]?
**A.** 34

**Q.** What about the “Class 2 cells (tail length between 1× and 2× the diameter of the nucleus)” value [1] of the same molecule?
**A.** 41

**Q.** And the “Class 3 cells (tail length > 2× the diameter of the nucleus)” value [1]?
**A.** 30

**Q.** What about the “No. of cells: Comets” value [1] of the same molecule?
**A.** 105

**Q.** What about the “BCL-2 (anti-apoptotic gene) expression level” value [2] of the same molecule?
**A.** diminished

**Q.** What about the “(%) Mortality BJ1 (cytotoxicity percentage on normal cells)” value ([3]; human, 48 h, 100 μg ml^−1) of the same molecule?
**A.** 1.10 ± 0.52%
